From PubChem BioAssay AID328 (DTP/NCI, 2004)
Where “and” joins values, the source holds several entries; their conditions need not be identical. Identical values can stand only once. Inconclusive results and toxic doses are left out.

Test system: BDF1 mice, P388 leukemia ip, median survival T/C
Assay: NCI In Vivo Anticancer Drug Screen. Data for tumor model P388 Leukemia (intraperitoneal) in B6D2F1 (BDF1) mice
Conditions: endpoint: median survival time, higher = longer survival
How it was run: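 Steps: implant the tumour, treat one group with compound and another with vehicle, record survival, then divide treated by control.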

[1] = dose: 1.25 mg/kg/injection, schedule: Q01DX009 (ip), vehicle: saline with Tween-80
[2] = dose: 2.5 mg/kg/injection, schedule: Q01DX009 (ip), vehicle: saline with Tween-80
[3] = dose: 50.0 mg/kg/injection, schedule: Q01DX009 (ip), vehicle: saline with Tween-80
[4] = dose: 100.0 mg/kg/injection, schedule: Q01DX009 (ip), vehicle: saline with Tween-80
[5] = dose: 200.0 mg/kg/injection, schedule: Q01DX009 (ip), vehicle: saline with Tween-80

**Q.** Which results are given for `COC(=O)CCc1c[nH]c2ccc(N(CCCl)CCCl)cc12`?
**A.** T/C (dose: 0.03 mg/kg/injection, schedule: Q04DX003 (ip), vehicle: saline with Tween-80): 105 % of control; T/C (dose: 0.04 mg/kg/injection, schedule: Q01DX009 (ip), vehicle: saline with Tween-80): 122 % of control; T/C (dose: 0.1 mg/kg/injection, schedule: Q01DX009 (ip), vehicle: saline with Tween-80): 154 % of control and 163 % of control; T/C (dose: 0.16 mg/kg/injection, schedule: Q04DX003 (ip), vehicle: saline with Tween-80): 113 % of control; T/C (dose: 0.2 mg/kg/injection, schedule: Q01DX009 (ip), vehicle: saline with Tween-80): 172 % of control; T/C (dose: 0.25 mg/kg/injection, schedule: Q04DX003 (ip), vehicle: saline with Tween-80): 166 % of control; T/C (dose: 0.3 mg/kg/injection, schedule: Q01DX009 (ip), vehicle: saline with Tween-80): 155 % of control and 181 % of control; T/C (dose: 0.5 mg/kg/injection, schedule: Q04DX003 (ip), vehicle: saline with Tween-80): 170 % of control; T/C (dose: 0.63 mg/kg/injection, schedule: Q04DX003 (ip), vehicle: saline with Tween-80): 113 % of control; T/C (dose: 0.8 mg/kg/injection, schedule: Q01DX009 (ip), vehicle: saline with Tween-80): 166 % of control; T/C (dose: 1.0 mg/kg/injection, schedule: Q04DX003 (ip), vehicle: saline with Tween-80): 241 % of control; T/C [1]: 196 % of control and 212 % of control; T/C (dose: 1.3 mg/kg/injection, schedule: Q04DX003 (ip), vehicle: saline with Tween-80): 205 % of control; T/C (dose: 2.0 mg/kg/injection, schedule: Q04DX003 (ip), vehicle: saline with Tween-80): 265 % of control and 217 % of control; T/C [2]: 250 % of control; T/C (dose: 3.0 mg/kg/injection, schedule: Q04DX003 (ip), vehicle: saline with Tween-80): 260 % of control and 290 % of control; T/C (dose: 4.4 mg/kg/injection, schedule: Q04DX003 (ip), vehicle: saline with Tween-80): 280 % of control and 300 % of control; T/C (dose: 4.5 mg/kg/injection, schedule: Q04DX003 (ip), vehicle: saline with Tween-80): 260 % of control; T/C (dose: 6.7 mg/kg/injection, schedule: Q04DX003 (ip), vehicle: saline with Tween-80): 300 % of control; T/C (dose: 6.75 mg/kg/injection, schedule: Q04DX003 (ip), vehicle: saline with Tween-80): 260 % of control; T/C (dose: 10.0 mg/kg/injection, schedule: Q04DX003 (ip), vehicle: saline with Tween-80): 200 % of control; T/C (dose: 15.0 mg/kg/injection, schedule: Q04DX003 (ip), vehicle: saline with Tween-80): 120 % of control; T/C (dose: 40.0 mg/kg/injection, schedule: Q04DX003 (ip), vehicle: saline with Tween-80): 272 % of control

**Q.** `O=C(/C=C/c1ccc(OCc2ccccc2)cc1)c1ccc(Cl)c(Cl)c1Cl` was tested. Which T/C [3] did it give?
**A.** The T/C was 98 % of control.

**Q.** And the T/C [4]?
**A.** The T/C was 90 % of control.

**Q.** And the T/C [5]?
**A.** The T/C was 89 % of control.

**Q.** For `O=C1c2ccccc2-c2ccc(Br)c3cccc1c23`, which T/C (dose: 50.0 mg/kg/injection, schedule: Q01DX009 (ip), vehicle: Klucel (hydroxypropylcellulose) (HPC)) is on record?
**A.** The T/C was 100 % of control.

**Q.** And the T/C (dose: 100.0 mg/kg/injection, schedule: Q01DX009 (ip), vehicle: Klucel (hydroxypropylcellulose) (HPC))?
**A.** Its T/C is 100 % of control.

**Q.** What about the T/C (dose: 200.0 mg/kg/injection, schedule: Q01DX009 (ip), vehicle: Klucel (hydroxypropylcellulose) (HPC)) of the same molecule?
**A.** The T/C was 100 % of control.

**Q.** Which results are given for `CCc1nc2nc(C)cc(C)n2n1`?
**A.** T/C (dose: 12.5 mg/kg/injection, schedule: Q01DX009 (ip), vehicle: saline): 91 % of control; T/C (dose: 25.0 mg/kg/injection, schedule: Q01DX009 (ip), vehicle: saline): 89 % of control; T/C (dose: 50.0 mg/kg/injection, schedule: Q01DX009 (ip), vehicle: saline): 97 % of control and 120 % of control; T/C (dose: 100.0 mg/kg/injection, schedule: Q01DX009 (ip), vehicle: saline): 86 % of control and 91 % of control; T/C (dose: 200.0 mg/kg/injection, schedule: Q01DX009 (ip), vehicle: saline): 104 % of control

**Q.** For `CC1=CC(=O)[C@@H](O)[C@]2(C)[C@H]3[C@@]4(O)OC[C@]35[C@H]([C@@H](C)[C@H]4O)[C@@H](O)C(=O)O[C@@H]5C[C@@H]12`, which T/C (dose: 1.0 mg/kg/injection, schedule: Q01DX010 (ip), vehicle: steriod suspending solution) is on record?
**A.** Its T/C is 150 % of control.

**Q.** What about the T/C (dose: 1.5 mg/kg/injection, schedule: Q01DX010 (ip), vehicle: acetone) of the same molecule?
**A.** Its T/C is 100 % of control.

**Q.** What about the T/C (dose: 2.0 mg/kg/injection, schedule: Q01DX010 (ip), vehicle: steriod suspending solution) of the same molecule?
**A.** Its T/C is 107 % of control.

**Q.** What about the T/C (dose: 3.0 mg/kg/injection, schedule: Q01DX010 (ip), vehicle: acetone) of the same molecule?
**A.** The T/C was 103 % of control.

**Q.** And the T/C (dose: 4.0 mg/kg/injection, schedule: Q01DX010 (ip), vehicle: steriod suspending solution)?
**A.** The T/C was 107 % of control.

**Q.** And the T/C (dose: 6.0 mg/kg/injection, schedule: Q01DX010 (ip), vehicle: acetone)?
**A.** Its T/C is 115 % of control.

**Q.** What about the T/C (dose: 8.0 mg/kg/injection, schedule: Q01DX010 (ip), vehicle: steriod suspending solution) of the same molecule?
**A.** Its T/C is 150 % of control.

**Q.** What about the T/C (dose: 12.0 mg/kg/injection, schedule: Q01DX010 (ip), vehicle: acetone) of the same molecule?
**A.** The T/C was 123 % of control.

**Q.** Which results are given for `O=CN(O)CC(=O)O.[Zn]`?
**A.** T/C (dose: 4.12 mg/kg/injection, schedule: Q01DX009 (ip), vehicle: saline): 118 % of control and 122 % of control; T/C (dose: 6.25 mg/kg/injection, schedule: Q01DX009 (ip), vehicle: saline): 118 % of control and 122 % of control; T/C (dose: 8.7 mg/kg/injection, schedule: Q04DX003 (ip), vehicle: saline): 104 % of control; T/C (dose: 9.37 mg/kg/injection, schedule: Q01DX009 (ip), vehicle: saline): 118 % of control; T/C (dose: 13.0 mg/kg/injection, schedule: Q04DX003 (ip), vehicle: saline): 113 % of control; T/C (dose: 19.5 mg/kg/injection, schedule: Q04DX003 (ip), vehicle: saline): 113 % of control; T/C (dose: 30.0 mg/kg/injection, schedule: Q04DX003 (ip), vehicle: saline): 118 % of control

**Q.** For `CCNc1ccc(/C=C2\C=Cc3ccccc32)cc1`, which T/C (dose: 0.39 mg/kg/injection, schedule: Q01DX009 (ip), vehicle: Klucel (hydroxypropylcellulose) (HPC)) is on record?
**A.** Its T/C is 100 % of control.

**Q.** And the T/C (dose: 0.78 mg/kg/injection, schedule: Q01DX009 (ip), vehicle: Klucel (hydroxypropylcellulose) (HPC))?
**A.** Its T/C is 105 % of control.

**Q.** And the T/C (dose: 1.56 mg/kg/injection, schedule: Q01DX009 (ip), vehicle: Klucel (hydroxypropylcellulose) (HPC))?
**A.** The T/C was 110 % of control.

**Q.** And the T/C (dose: 3.12 mg/kg/injection, schedule: Q01DX009 (ip), vehicle: Klucel (hydroxypropylcellulose) (HPC))?
**A.** Its T/C is 90 % of control.

**Q.** And the T/C (dose: 6.25 mg/kg/injection, schedule: Q01DX009 (ip), vehicle: olive oil, sesame oil, peanut oil)?
**A.** Its T/C is 113 % of control.

**Q.** And the T/C (dose: 12.5 mg/kg/injection, schedule: Q01DX009 (ip), vehicle: Klucel (hydroxypropylcellulose) (HPC))?
**A.** Its T/C is 95 % of control.

**Q.** And the T/C (dose: 12.5 mg/kg/injection, schedule: Q01DX009 (ip), vehicle: olive oil, sesame oil, peanut oil)?
**A.** Its T/C is 118 % of control.

**Q.** And the T/C (dose: 25.0 mg/kg/injection, schedule: Q01DX009 (ip), vehicle: olive oil, sesame oil, peanut oil)?
**A.** The T/C was 118 % of control.

**Q.** And the T/C (dose: 50.0 mg/kg/injection, schedule: Q01DX009 (ip), vehicle: olive oil, sesame oil, peanut oil)?
**A.** The T/C was 100 % of control.

**Q.** How did the T/C (dose: 12.5 mg/kg/injection, schedule: Q01DX009 (ip), vehicle: saline with Tween-80) turn out when `COc1ccc2nc3cc(Cl)ccc3c(NCCNCCNCCNc3c4ccc(Cl)cc4nc4ccc(OC)cc34)c2c1` was run?
**A.** The T/C was 151 % of control.

**Q.** And the T/C (dose: 25.0 mg/kg/injection, schedule: Q01DX009 (ip), vehicle: saline with Tween-80)?
**A.** Its T/C is 171 % of control.

**Q.** What about the T/C [3] of the same molecule?
**A.** The T/C was 161 % of control.

**Q.** For `COC1=CC(=O)c2c(O)cc(OC)cc2C1=O`, which T/C [1] is on record?
**A.** Its T/C is 120 % of control.

**Q.** And the T/C [2]?
**A.** The T/C was 95 % of control.

**Q.** What does the source list for `NC(=O)c1c(F)c(F)c(F)c(F)c1F`?
**A.** T/C (dose: 100.0 mg/kg/injection, schedule: Q01DX001 (ip), vehicle: saline with Tween-80): 107 % of control; T/C (dose: 200.0 mg/kg/injection, schedule: Q01DX001 (ip), vehicle: saline with Tween-80): 115 % of control; T/C (dose: 400.0 mg/kg/injection, schedule: Q01DX001 (ip), vehicle: saline with Tween-80): 110 % of control

**Q.** Which results are given for `O=C(/C=C/c1ccc(OCc2ccccc2)cc1)c1cccs1`?
**A.** T/C [3]: 98 % of control; T/C [4]: 92 % of control

**Q.** For `NOCc1cccc(C(F)(F)F)c1`, which T/C (dose: 75.0 mg/kg/injection, schedule: Q04DX003 (ip), vehicle: saline) is on record?
**A.** Its T/C is 91 % of control.

**Q.** What about the T/C (dose: 150.0 mg/kg/injection, schedule: Q04DX003 (ip), vehicle: saline) of the same molecule?
**A.** Its T/C is 91 % of control.

**Q.** What about the T/C (dose: 300.0 mg/kg/injection, schedule: Q04DX003 (ip), vehicle: saline) of the same molecule?
**A.** Its T/C is 91 % of control.

**Q.** For `Cc1cc2nc(N)sc2cc1C`, which T/C (dose: 12.5 mg/kg/injection, schedule: Q01DX009 (ip), vehicle: other) is on record?
**A.** The T/C was 115 % of control.

**Q.** What about the T/C (dose: 25.0 mg/kg/injection, schedule: Q01DX009 (ip), vehicle: other) of the same molecule?
**A.** Its T/C is 105 % of control.

**Q.** How did the T/C [4] turn out when `CCCCCn1cnc2c(=S)nc[nH]c21` was run?
**A.** The T/C was 90 % of control.

**Q.** What about the T/C [5] of the same molecule?
**A.** The T/C was 104 % of control.

**Q.** And the T/C (dose: 400.0 mg/kg/injection, schedule: Q01DX009 (ip), vehicle: saline with Tween-80)?
**A.** Its T/C is 90 % of control.
